Experiments:
A549 cells = assay: A549 proliferation (viability) assay, Cell Titer Fluor, 72 hours; type: cell-based; settings: Homo sapiens
Outline: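 Seed A549 at 1000 cells/well and culture 24 h. Add compound (final DMSO 0.5%) and incubate 72 h at 37 °C. Add Cell Titer Fluor, mix 15 min, incubate 30 min, read fluorescence and fit EC50 by four-parameter logistic.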

[1] = target: T1, GLS1 (purified recombinant human GAC) (Homo sapiens, UniProt O94925); assay: GLS1 enzymatic activity assay (dual-coupled, Amplex UltraRed/resorufin); type: biochemical
T1 sequence (O94925 55-598 isoform O94925-3 limits assumed): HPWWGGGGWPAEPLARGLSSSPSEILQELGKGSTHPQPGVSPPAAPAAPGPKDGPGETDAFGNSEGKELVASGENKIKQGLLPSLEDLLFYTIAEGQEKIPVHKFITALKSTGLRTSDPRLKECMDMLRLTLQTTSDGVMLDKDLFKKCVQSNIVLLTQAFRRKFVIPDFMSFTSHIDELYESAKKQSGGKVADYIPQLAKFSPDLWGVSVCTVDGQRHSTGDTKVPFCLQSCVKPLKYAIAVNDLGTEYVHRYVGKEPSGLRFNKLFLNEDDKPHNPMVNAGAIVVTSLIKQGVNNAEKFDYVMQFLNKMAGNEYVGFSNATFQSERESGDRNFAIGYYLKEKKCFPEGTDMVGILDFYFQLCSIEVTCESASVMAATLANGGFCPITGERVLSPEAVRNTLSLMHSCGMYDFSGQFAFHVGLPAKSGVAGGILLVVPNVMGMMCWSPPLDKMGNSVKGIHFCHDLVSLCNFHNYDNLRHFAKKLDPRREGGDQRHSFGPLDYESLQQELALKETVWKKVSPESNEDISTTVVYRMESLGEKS
Outline: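 GAC activity measured by coupling glutamate to glutamate oxidase and HRP, generating resorufin from Amplex UltraRed. Enzyme (2 nM) preincubated with 50 mM potassium phosphate 10 min at room temperature, then inhibitor 10 min; 1 mM glutamine substrate, 1% DMSO. Fluorescence 530/590 nm, kinetic or 20-min endpoint; IC50 from four-parameter logistic fit.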

SMILES | EC50 (A549 cells) [µM] | IC50 [1] [µM]
Cc1ccc(CNC(=O)c2cn(CCC(F)Cn3ccc(NC(=O)Cc4ccccc4)cc3=O)nn2)cn1 (stereo not shown) [Example 148, 1-{3-fluoro-4-[2-oxo-4-(2-phenylacetamido)-1,2-dihydropyridin-1-yl]butyl}-N-[(6-methylpyridin-3-yl)methyl]-1H-1,2,3-triazole-4-carboxamide] | 0.5 to 5 | < 0.1
O=C(Cc1ccccc1)Nc1ccn(CC(F)CCn2cc(C(=O)NCc3ncccc3F)nn2)c(=O)c1 (stereo not shown) [Example 149, 1-{3-fluoro-4-[2-oxo-4-(2-phenylacetamido)-1,2-dihydropyridin-1-yl]butyl}-N-[(3-fluoropyridin-2-yl)methyl]-1H-1,2,3-triazole-4-carboxamide] | 0.5 to 5 | 0.1 to 0.5
Cc1ccc(CNC(=O)c2cn(CC(F)CCn3ccc(NC(=O)Cc4ccccc4)cc3=O)nn2)cn1 (stereo not shown) [Example 150, 1-{2-fluoro-4-[2-oxo-4-(2-phenylacetamido)-1,2-dihydropyridin-1-yl]butyl}-N-[(6-methylpyridin-3-yl)methyl]-1H-1,2,3-triazole-4-carboxamide] | > 5 | 0.1 to 0.5
O=C(Cc1ccccc1)Nc1ccn(CCC(F)Cn2cc(C(=O)NCc3ncccc3F)nn2)c(=O)c1 (stereo not shown) [Example 151, 1-{2-fluoro-4-[2-oxo-4-(2-phenylacetamido)-1,2-dihydropyridin-1-yl]butyl}-N-[(3-fluoropyridin-2-yl)methyl]-1H-1,2,3-triazole-4-carboxamide] | 0.5 to 5 | 0.1 to 0.5
O=C(NCc1cccc(C(F)(F)F)c1)c1cn(CCCCn2ccc(NC(=O)C3CCCCC3)cc2=O)nn1 [Example 152, 1-[4-(4-cyclohexaneamido-2-oxo-1,2-dihydropyridin-1-yl)butyl]-N-{[3-(trifluoromethyl)phenyl]methyl}-1H-1,2,3-triazole-4-carboxamide] | 0.1 to 0.5 | < 0.1
O=C(CC1CCCC1)Nc1ccn(CCCCn2cc(C(=O)NCc3cccc(C(F)(F)F)c3)nn2)c(=O)c1 [Example 153, 1-{4-[4-(2-cyclopentylacetamido)-2-oxo-1,2-dihydropyridin-1-yl]butyl}-N-{[3-(trifluoromethyl)phenyl]methyl}-1H-1,2,3-triazole-4-carboxamide] | < 0.1 | < 0.1
O=C(CC1CC1)Nc1ccn(CCCCn2cc(C(=O)NCc3cccc(C(F)(F)F)c3)nn2)c(=O)c1 [Example 154, 1-{4-[4-(2-cyclopropylacetamido)-2-oxo-1,2-dihydropyridin-1-yl]butyl}-N-{[3-(trifluoromethyl)phenyl]methyl}-1H-1,2,3-triazole-4-carboxamide] | 0.5 to 5 | < 0.1
O=C(CN1CCCC1=O)Nc1ccn(CCCCn2cc(C(=O)NCc3cccc(C(F)(F)F)c3)nn2)c(=O)c1 [Example 155, 1-(4-{2-oxo-4-[2-(2-oxopyrrolidin-1-yl)acetamido]-1,2-dihydropyridin-1-yl}butyl)-N-{[3-(trifluoromethyl)phenyl]methyl}-1H-1,2,3-triazole-4-carboxamide] | > 5 | 0.1 to 0.5
CCN1CCC(CC(=O)Nc2ccn(CCCCn3cc(C(=O)NCc4cccc(C(F)(F)F)c4)nn3)c(=O)c2)CC1 [Example 156, 1-(4-{4-[2-(1-ethylpiperidin-4-yl)acetamido]-2-oxo-1,2-dihydropyridin-1-yl}butyl)-N-{[3-(trifluoromethyl)phenyl]methyl}-1H-1,2,3-triazole-4-carboxamide] | 0.5 to 5 | 0.1 to 0.5
O=C(Cn1ccccc1=O)Nc1ccn(CCCCn2cc(C(=O)NCc3cccc(C(F)(F)F)c3)nn2)c(=O)c1 [Example 157, 1-(4-{2-oxo-4-[2-(2-oxo-1,2-dihydropyridin-1-yl)acetamido]-1,2-dihydropyridin-1-yl}butyl)-N-{[3-(trifluoromethyl)phenyl]methyl}-1H-1,2,3-triazole-4-carboxamide] | > 5 | 0.5 to 5
Cc1ccc(CNC(=O)c2cn(CCCCn3ccc(NC(=O)Cc4ccccc4)cc3=O)nn2)cn1 [Example 158, N-[(6-methylpyridin-3-yl)methyl]-1-{4-[2-oxo-4-(2-phenylacetamido)-1,2-dihydropyridin-1-yl]butyl}-1H-1,2,3-triazole-4-carboxamide] | 0.5 to 5 | < 0.1
Cc1ccc(CNC(=O)c2cn(CCCCn3ccc(NC(=O)C4CCCC4)cc3=O)nn2)cn1 [Example 159, 1-[4-(4-cyclopentaneamido-2-oxo-1,2-dihydropyridin-1-yl)butyl]-N-[(6-methylpyridin-3-yl)methyl]-1H-1,2,3-triazole-4-carboxamide] | 0.5 to 5 | 0.1 to 0.5
O=C(Cc1ccccc1)Nc1ccn(CC(F)CCn2cc(C(=O)NCc3cc(Br)ccn3)nn2)c(=O)c1 (stereo not shown) [Example 160, N-[(4-bromopyridin-2-yl)methyl]-1-{3-fluoro-4-[2-oxo-4-(2-phenylacetamido)-1,2-dihydropyridin-1-yl]butyl}-1H-1,2,3-triazole-4-carboxamide] | 0.5 to 5 | < 0.1
O=C(Cc1ccccc1)Nc1ccn(CC(F)CCn2cc(C(=O)NCc3cc(C(F)(F)F)ccn3)nn2)c(=O)c1 (stereo not shown) [Example 161, 1-{3-fluoro-4-[2-oxo-4-(2-phenylacetamido)-1,2-dihydropyridin-1-yl]butyl}-N-{[4-(trifluoromethyl)pyridin-2-yl]methyl}-1H-1,2,3-triazole-4-carboxamide] | 0.1 to 0.5 | < 0.1
Cc1cccc(CNC(=O)c2cn(CCC(F)Cn3ccc(NC(=O)Cc4ccccc4)cc3=O)nn2)n1 (stereo not shown) [Example 162, 1-{3-fluoro-4-[2-oxo-4-(2-phenylacetamido)-1,2-dihydropyridin-1-yl]butyl}-N-[(6-methylpyridin-2-yl)methyl]-1H-1,2,3-triazole-4-carboxamide] | 0.5 to 5 | < 0.1
O=C(Cc1ccccc1)Nc1ccn(CCC(F)Cn2cc(C(=O)NCc3cc(Br)ccn3)nn2)c(=O)c1 (stereo not shown) [Example 163, N-[(4-bromopyridin-2-yl)methyl]-1-{2-fluoro-4-[2-oxo-4-(2-phenylacetamido)-1,2-dihydropyridin-1-yl]butyl}-1H-1,2,3-triazole-4-carboxamide] | 0.1 to 0.5 | < 0.1
O=C(Cc1ccccc1)Nc1ccn(CCC(F)Cn2cc(C(=O)NCc3cc(C(F)(F)F)ccn3)nn2)c(=O)c1 (stereo not shown) [Example 164, 1-{2-fluoro-4-[2-oxo-4-(2-phenylacetamido)-1,2-dihydropyridin-1-yl]butyl}-N-{[4-(trifluoromethyl)pyridin-2-yl]methyl}-1H-1,2,3-triazole-4-carboxamide] | 0.1 to 0.5 | < 0.1
Cc1cccc(CNC(=O)c2cn(CC(F)CCn3ccc(NC(=O)Cc4ccccc4)cc3=O)nn2)n1 (stereo not shown) [Example 165, 1-{2-fluoro-4-[2-oxo-4-(2-phenylacetamido)-1,2-dihydropyridin-1-yl]butyl}-N-[(6-methylpyridin-2-yl)methyl]-1H-1,2,3-triazole-4-carboxamide] | 0.5 to 5 | < 0.1
O=C(CC1CCC(F)(F)CC1)Nc1ccn(CCCCn2cc(C(=O)NCc3cccc(OC(F)(F)F)c3)nn2)c(=O)c1 [Example 166, 1-(4-{4-[2-(4,4-difluorocyclohexyl)acetamido]-2-oxo-1,2-dihydropyridin-1-yl}butyl)-N-{[3-(trifluoromethoxy)phenyl]methyl}-1H-1,2,3-triazole-4-carboxamide] | < 0.1 | < 0.1
O=C(NCc1cccc(OC(F)(F)F)c1)c1cn(CCCCn2ccc(NC(=O)C(F)c3ccccc3)cc2=O)nn1 (stereo not shown) [Example 167, 1-{4-[4-(2-fluoro-2-phenylacetamido)-2-oxo-1,2-dihydropyridin-1-yl]butyl}-N-{[3-(trifluoromethoxy)phenyl]methyl}-1H-1,2,3-triazole-4-carboxamide] | < 0.1 | < 0.1
O=C(CC1CC1(F)F)Nc1ccn(CCCCn2cc(C(=O)NCc3cccc(OC(F)(F)F)c3)nn2)c(=O)c1 (stereo not shown) [Example 168, 1-(4-{4-[2-(2,2-difluorocyclopropyl)acetamido]-2-oxo-1,2-dihydropyridin-1-yl}butyl)-N-{[3-(trifluoromethoxy)phenyl]methyl}-1H-1,2,3-triazole-4-carboxamide] | 0.5 to 5 | < 0.1
O=C(CC1CCSCC1)Nc1ccn(CCCCn2cc(C(=O)NCc3cccc(OC(F)(F)F)c3)nn2)c(=O)c1 [Example 169, 1-(4-{2-oxo-4-[2-(thian-4-yl)acetamido]-1,2-dihydropyridin-1-yl}butyl)-N-{[3-(trifluoromethoxy)phenyl]methyl}-1H-1,2,3-triazole-4-carboxamide] | 0.1 to 0.5 | < 0.1
COC1CCC(CC(=O)Nc2ccn(CCCCn3cc(C(=O)NCc4cccc(OC(F)(F)F)c4)nn3)c(=O)c2)CC1 (stereo not shown) [Example 170, 1-(4-{4-[2-(4-methoxycyclohexyl)acetamido]-2-oxo-1,2-dihydropyridin-1-yl}butyl)-N-{[3-(trifluoromethoxy)phenyl]methyl}-1H-1,2,3-triazole-4-carboxamide] | 0.1 to 0.5 | < 0.1

From US20160002204A1 (Board of Regents, The University of Texas System, priority 2014, published 2016)
